Results from patent US12275731B2, “Azaindole inhibitors of wild-type and mutant forms of LRRK2” (DANA-FARBER CANCER INSTITUTE, INC., priority 2018, dated 2025).

Assays:
Assay in all cases: KinomeScan profiling
Type in all cases: binding
MAPKAPK2 = MAPKAPK2 (Homo sapiens, UniProt P49137); settings: MAPKAPK2, 1 μM; read-out: % control
Procedure, shortened: (§1)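 Single-point competition binding screen: 1 μM, DMSO, 468 kinases. Results reported as % control from RLU, normalised to DMSO and positive-control wells. Activity threshold: <35% control.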

YSK4 = target: T1, YSK4 (Homo sapiens, UniProt Q56UN5); settings: YSK4, 1 μM; read-out: % control
T1 sequence (Q56UN5 1-1328): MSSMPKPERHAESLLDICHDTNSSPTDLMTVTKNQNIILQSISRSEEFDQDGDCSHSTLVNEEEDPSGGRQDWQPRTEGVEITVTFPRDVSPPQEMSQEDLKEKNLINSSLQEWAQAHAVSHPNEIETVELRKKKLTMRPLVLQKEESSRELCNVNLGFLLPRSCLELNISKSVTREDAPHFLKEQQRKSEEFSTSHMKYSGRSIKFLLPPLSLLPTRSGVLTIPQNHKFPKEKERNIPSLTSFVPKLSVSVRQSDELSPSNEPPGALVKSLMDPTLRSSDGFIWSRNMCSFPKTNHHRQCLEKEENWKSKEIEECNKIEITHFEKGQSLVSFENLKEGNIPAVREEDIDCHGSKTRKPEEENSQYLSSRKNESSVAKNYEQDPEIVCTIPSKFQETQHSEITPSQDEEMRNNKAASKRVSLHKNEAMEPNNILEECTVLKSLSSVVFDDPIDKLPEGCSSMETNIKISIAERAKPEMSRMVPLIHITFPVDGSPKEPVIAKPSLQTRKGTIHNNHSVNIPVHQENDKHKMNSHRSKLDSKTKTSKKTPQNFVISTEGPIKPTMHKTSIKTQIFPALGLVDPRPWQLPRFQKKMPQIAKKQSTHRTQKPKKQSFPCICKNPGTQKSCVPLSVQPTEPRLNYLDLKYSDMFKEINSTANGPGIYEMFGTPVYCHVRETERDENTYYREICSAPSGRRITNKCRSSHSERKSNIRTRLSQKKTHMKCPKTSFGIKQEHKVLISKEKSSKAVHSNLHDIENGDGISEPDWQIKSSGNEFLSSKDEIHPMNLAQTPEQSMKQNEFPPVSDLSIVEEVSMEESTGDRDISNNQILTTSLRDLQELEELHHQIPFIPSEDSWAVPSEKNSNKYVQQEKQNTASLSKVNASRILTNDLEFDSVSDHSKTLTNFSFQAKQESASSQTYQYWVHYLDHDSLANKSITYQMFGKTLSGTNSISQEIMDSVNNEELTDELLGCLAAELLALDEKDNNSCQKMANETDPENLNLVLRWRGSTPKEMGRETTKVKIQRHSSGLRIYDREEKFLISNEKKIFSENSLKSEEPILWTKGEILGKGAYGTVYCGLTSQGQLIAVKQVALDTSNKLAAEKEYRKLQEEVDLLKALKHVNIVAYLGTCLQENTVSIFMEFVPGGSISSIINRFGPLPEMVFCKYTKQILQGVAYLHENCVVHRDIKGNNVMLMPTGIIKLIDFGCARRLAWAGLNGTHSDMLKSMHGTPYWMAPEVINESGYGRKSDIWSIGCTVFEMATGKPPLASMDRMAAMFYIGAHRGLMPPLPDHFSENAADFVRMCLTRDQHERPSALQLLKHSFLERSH
Procedure, shortened: as §1

PIK3CA(I800L) = target: T2, PIK3CA(I800L) (Homo sapiens, UniProt P42336, I800L); settings: read-out: % control
T2 construct: purchased KinomeScan® (panel service)
Procedure, shortened: as §1

ULK1 = target: T3, ULK1 (Homo sapiens, UniProt O75385); settings: ULK1, 1 μM; read-out: % control
T3 sequence (O75385 1-1050): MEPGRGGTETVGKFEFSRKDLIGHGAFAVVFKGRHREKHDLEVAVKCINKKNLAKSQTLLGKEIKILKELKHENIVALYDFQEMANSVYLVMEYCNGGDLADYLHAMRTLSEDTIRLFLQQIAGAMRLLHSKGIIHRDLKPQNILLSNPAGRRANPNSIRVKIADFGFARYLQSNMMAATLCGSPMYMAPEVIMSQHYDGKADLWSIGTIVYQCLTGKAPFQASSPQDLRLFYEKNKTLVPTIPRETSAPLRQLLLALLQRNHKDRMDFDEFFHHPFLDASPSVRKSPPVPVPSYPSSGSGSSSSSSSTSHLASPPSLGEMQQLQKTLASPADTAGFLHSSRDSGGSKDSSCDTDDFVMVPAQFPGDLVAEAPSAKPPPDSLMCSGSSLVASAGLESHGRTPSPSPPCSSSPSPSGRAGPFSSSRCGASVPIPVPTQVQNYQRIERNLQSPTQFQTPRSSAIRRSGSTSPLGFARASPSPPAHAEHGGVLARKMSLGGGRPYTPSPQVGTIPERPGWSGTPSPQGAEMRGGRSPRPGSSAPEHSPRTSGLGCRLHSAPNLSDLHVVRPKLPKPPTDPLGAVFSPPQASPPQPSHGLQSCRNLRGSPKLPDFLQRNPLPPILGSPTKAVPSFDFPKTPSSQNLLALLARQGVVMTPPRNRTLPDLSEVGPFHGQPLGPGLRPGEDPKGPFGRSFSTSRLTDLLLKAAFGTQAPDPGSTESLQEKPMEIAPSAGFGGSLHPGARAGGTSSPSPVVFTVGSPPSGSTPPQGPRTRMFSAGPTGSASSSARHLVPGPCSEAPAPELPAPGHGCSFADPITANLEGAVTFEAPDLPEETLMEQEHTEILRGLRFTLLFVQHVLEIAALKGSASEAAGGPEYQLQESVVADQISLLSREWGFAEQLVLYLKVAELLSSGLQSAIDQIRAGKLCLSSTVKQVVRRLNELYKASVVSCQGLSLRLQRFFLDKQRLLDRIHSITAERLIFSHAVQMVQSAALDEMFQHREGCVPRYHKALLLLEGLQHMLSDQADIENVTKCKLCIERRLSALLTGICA
Procedure, shortened: as §1

DAPK3 = DAPK3 (Homo sapiens, UniProt O43293); settings: DAPK3, 1 μM; read-out: % control
Procedure, shortened: as §1

BRAF(V600E) = target: T4, BRAF(V600E) (Homo sapiens, UniProt P15056, V600E); settings: read-out: % control
T4 construct: purchased KinomeScan®
Procedure, shortened: as §1

Chain of MAPKAPK2 (P49137 whole entry): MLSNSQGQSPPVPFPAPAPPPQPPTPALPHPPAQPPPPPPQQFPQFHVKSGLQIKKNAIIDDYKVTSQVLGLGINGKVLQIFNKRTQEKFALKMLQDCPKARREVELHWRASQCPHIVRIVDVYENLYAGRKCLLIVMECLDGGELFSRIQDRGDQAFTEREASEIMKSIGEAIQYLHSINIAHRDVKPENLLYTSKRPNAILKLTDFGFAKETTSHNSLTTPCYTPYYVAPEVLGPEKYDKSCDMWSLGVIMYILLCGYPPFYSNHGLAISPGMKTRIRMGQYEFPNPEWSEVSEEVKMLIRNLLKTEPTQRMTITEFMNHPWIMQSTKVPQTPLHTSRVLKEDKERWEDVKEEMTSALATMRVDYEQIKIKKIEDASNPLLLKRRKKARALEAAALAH
Chain of DAPK3 (O43293 whole entry): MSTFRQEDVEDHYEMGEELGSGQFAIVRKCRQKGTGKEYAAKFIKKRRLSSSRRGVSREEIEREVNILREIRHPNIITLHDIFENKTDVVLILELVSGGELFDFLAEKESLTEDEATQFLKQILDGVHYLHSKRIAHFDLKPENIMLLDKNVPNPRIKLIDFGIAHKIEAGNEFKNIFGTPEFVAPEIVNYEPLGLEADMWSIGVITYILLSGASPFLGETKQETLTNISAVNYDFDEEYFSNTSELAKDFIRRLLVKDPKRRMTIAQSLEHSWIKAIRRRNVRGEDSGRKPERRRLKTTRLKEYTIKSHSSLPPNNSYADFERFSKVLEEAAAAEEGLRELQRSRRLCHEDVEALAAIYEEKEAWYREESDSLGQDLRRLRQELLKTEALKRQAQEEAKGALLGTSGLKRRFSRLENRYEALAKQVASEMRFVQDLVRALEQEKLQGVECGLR
T4 sequence (P15056 whole entry V600E): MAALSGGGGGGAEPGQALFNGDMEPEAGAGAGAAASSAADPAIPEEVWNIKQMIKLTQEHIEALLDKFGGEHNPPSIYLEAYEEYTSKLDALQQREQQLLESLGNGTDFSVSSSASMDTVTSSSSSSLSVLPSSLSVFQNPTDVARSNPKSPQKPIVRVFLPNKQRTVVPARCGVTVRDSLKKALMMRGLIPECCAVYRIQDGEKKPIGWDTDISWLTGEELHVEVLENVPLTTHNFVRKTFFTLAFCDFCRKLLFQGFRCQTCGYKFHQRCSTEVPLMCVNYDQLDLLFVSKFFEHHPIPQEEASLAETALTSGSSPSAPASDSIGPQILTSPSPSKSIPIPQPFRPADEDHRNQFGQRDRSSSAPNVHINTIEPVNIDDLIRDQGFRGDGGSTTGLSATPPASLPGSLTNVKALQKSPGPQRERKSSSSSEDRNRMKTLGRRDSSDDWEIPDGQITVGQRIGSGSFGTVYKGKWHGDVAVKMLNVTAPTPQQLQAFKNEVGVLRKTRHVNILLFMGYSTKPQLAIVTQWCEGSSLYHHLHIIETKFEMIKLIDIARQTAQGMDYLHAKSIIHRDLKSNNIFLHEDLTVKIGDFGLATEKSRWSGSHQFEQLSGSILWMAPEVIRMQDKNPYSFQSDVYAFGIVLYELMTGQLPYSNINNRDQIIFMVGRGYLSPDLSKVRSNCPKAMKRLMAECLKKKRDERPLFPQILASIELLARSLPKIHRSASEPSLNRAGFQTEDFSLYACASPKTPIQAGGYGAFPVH
T2 sequence (P42336 whole entry I800L): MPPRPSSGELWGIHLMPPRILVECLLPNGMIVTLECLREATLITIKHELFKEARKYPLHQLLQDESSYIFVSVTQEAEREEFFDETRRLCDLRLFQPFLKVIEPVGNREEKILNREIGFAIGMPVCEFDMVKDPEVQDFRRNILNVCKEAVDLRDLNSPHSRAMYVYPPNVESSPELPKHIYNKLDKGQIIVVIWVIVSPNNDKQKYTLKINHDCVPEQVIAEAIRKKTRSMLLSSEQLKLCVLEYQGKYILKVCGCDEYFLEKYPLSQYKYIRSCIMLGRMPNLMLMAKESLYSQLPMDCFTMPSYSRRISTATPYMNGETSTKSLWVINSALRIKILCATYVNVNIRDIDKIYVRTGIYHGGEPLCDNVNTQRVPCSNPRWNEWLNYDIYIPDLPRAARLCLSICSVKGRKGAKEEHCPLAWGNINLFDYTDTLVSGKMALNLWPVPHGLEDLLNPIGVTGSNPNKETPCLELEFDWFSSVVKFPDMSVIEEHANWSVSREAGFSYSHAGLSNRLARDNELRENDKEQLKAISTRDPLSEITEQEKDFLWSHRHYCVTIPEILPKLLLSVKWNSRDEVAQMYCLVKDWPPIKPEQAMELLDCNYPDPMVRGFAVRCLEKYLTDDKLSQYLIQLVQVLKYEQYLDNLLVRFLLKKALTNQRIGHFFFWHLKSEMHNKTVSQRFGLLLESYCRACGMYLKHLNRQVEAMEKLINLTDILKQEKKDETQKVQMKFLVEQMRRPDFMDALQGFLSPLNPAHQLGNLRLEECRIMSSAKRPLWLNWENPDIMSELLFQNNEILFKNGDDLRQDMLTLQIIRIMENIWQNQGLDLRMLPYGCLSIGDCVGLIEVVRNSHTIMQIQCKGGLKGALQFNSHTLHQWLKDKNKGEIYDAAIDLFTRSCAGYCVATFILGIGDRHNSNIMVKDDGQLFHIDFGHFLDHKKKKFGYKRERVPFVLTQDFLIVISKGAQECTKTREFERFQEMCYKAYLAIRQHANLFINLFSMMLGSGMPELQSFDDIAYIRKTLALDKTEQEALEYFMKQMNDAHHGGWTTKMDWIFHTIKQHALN

Row | Structure (SMILES) | remaining binding at 1 µM (MAPKAPK2) [%] | remaining binding at 1 µM (YSK4) [%] | remaining binding at 1 µM (PIK3CA(I800L)) [%] | remaining binding at 1 µM (ULK1) [%] | remaining binding at 1 µM (DAPK3) [%] | remaining binding at 1 µM (BRAF(V600E)) [%]
1 | CNc1c(-c2cnn([C@H]3CCN(C(C)=O)C[C@@H]3F)c2)cnc2[nH]cc(Cl)c12 [Compound 77, 1-((3S,4S)-4-(4-(3-chloro-4-(methylamino)-1H-pyrrolo[2,3-b]pyridin-5-yl)-1H-pyrazol-1-yl)-3-fluoropiperidin-1-yl)ethan-1-one] | 100 | 2.6 | 566 | 3.1 | 79 | 98
2 | O=C(c1ccc(-c2cnc3[nH]cc(Cl)c3c2NC2CCCC2)cc1)N1CCC(N2CCOCC2)CC1 [Compound 101, (4-(3-chloro-4-(cyclopentylamino)-1H-pyrrolo[2,3-b]pyridin-5-yl)phenyl)(4-morpholinopiperidin-1-yl)methanone] | 51 | 63 | 80 | 73 | 88 | 99
3 | CNc1c(-c2ccc(C(=O)N3CCC(N4CCOCC4)CC3)cc2)cnc2[nH]cc(Cl)c12 [Compound 96, (4-(3-chloro-4-(methylamino)-1H-pyrrolo[2,3-b]pyridin-5-yl)phenyl)(4-morpholinopiperidin-1-yl)methanone] | 100 | 2.2 | 64 | 3.8 | 96 | 87
